# ChEMBL document CHEMBL4118098, “Discovery of DS28120313 as a potent orally active hepcidin production inhibitor: Design and optimization of novel 4,6-disubstituted indazole derivatives” (Bioorg Med Chem Lett, 2017)
# Key:
# [1] = target: PAS domain-containing serine/threonine-protein kinase (Homo sapiens) (UniProt Q96RG2); assay: Inhibition of PASK (unknown origin) at 0.45 uM relative to control
# [2] = target: Cyclin-dependent kinase 2 (Homo sapiens) (UniProt P24941); assay: Inhibition of CDK2 (unknown origin) at 0.19 uM relative to control
# [3] = target: Tyrosine-protein kinase Srms (Homo sapiens) (UniProt Q9H3Y6); assay: Inhibition of SRM (SRMS) (unknown origin) at 0.19 uM relative to control
# [4] = target: Tyrosine-protein kinase JAK2 (Homo sapiens) (UniProt O60674); assay: Inhibition of JAK2 (unknown origin) at 0.19 uM relative to control
# [5] = target: RAF proto-oncogene serine/threonine-protein kinase (Homo sapiens) (UniProt P04049); assay: Inhibition of c-Raf (unknown origin) at 0.19 uM relative to control
# [6] = target: Phosphorylase b kinase gamma catalytic chain, skeletal muscle/heart isoform (Homo sapiens) (UniProt Q16816); assay: Inhibition of PhKg1 (unknown origin) at 0.19 uM relative to control
# [7] = system: Proto-oncogene tyrosine-protein kinase receptor Ret (Homo sapiens), P07949 [Y791F]; assay: Inhibition of RET Y791F mutant (unknown origin) at 0.19 uM relative to control
# [8] = target: Homeodomain-interacting protein kinase 1 (Homo sapiens) (UniProt Q86Z02); assay: Inhibition of HIPK1 (unknown origin) at 0.19 uM relative to control
# [9] = target: Serine/threonine-protein kinase PAK 5 (Homo sapiens) (UniProt Q9P286); assay: Inhibition of PAK5/PAK7 (unknown origin) at 0.19 uM relative to control
# [10] = target: Serine/threonine-protein kinase Chk1 (Homo sapiens) (UniProt O14757); assay: Inhibition of CHK1 (unknown origin) at 0.19 uM relative to control
# [11] = target: Serine/threonine-protein kinase PAK 3 (Homo sapiens) (UniProt O75914); assay: Inhibition of PAK3 (unknown origin) at 0.19 uM relative to control
# [12] = target: T1, Serine/threonine-protein kinase D1 (Homo sapiens) (UniProt Q15139); assay: Inhibition of PKD1 (unknown origin) at 0.164 uM relative to control
# T1 sequence (whole entry): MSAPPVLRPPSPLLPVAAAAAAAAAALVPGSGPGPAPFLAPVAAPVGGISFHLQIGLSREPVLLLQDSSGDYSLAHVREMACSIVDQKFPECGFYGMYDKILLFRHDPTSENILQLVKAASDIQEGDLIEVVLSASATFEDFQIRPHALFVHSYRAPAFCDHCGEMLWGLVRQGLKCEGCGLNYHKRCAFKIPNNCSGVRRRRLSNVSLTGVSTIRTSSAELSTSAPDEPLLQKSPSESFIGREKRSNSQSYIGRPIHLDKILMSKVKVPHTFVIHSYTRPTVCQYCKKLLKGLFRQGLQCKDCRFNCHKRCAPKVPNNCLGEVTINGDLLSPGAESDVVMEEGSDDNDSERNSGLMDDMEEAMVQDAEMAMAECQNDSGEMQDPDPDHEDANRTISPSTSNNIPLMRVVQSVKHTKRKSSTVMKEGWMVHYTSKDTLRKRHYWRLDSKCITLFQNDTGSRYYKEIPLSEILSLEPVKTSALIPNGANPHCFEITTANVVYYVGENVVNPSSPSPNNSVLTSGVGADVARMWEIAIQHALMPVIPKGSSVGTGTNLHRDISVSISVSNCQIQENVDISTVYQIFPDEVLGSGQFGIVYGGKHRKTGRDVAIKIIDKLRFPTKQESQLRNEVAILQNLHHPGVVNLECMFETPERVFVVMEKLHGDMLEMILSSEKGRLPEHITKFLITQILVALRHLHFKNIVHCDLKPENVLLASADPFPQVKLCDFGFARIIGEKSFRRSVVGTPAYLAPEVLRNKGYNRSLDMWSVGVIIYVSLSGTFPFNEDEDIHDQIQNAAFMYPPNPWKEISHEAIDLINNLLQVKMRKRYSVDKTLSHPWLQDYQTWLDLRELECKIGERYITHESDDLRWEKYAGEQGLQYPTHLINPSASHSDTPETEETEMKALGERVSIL
# [13] = target: RAC-beta serine/threonine-protein kinase (Homo sapiens) (UniProt P31751); assay: Inhibition of AKT2 (unknown origin) at 0.164 uM relative to control
# [14] = target: Vascular endothelial growth factor receptor 3 (Homo sapiens) (UniProt P35916); assay: Inhibition of FLT4 (unknown origin) at 0.164 uM relative to control
# [15] = target: Vascular endothelial growth factor receptor 1 (Homo sapiens) (UniProt P17948); assay: Inhibition of FLT1 (unknown origin) at 0.164 uM relative to control
# [16] = target: Serine/threonine-protein kinase 24 (Homo sapiens) (UniProt Q9Y6E0); assay: Inhibition of MST3 (unknown origin) at 0.164 uM relative to control
# [17] = system: Receptor-type tyrosine-protein kinase FLT3 (Homo sapiens), P36888 [D835Y]; assay: Inhibition of Flt3 D835Y mutant (unknown origin) at 0.164 uM relative to control
# [18] = target: CDK4/Cyclin D3 (Homo sapiens) (UniProt P11802+P30281); assay: Inhibition of CDK4/CyclinD3 (unknown origin) at 0.164 uM relative to control; type: protein-complex assay
# [19] = target: Platelet-derived growth factor receptor alpha (Homo sapiens) (UniProt P16234); assay: Inhibition of PDGFR alpha (unknown origin) at 0.164 uM relative to control
# [20] = target: Serine/threonine-protein kinase PAK 5 (Homo sapiens) (UniProt Q9P286); assay: Inhibition of PAK5/PAK7 (unknown origin) at 0.164 uM relative to control
# [21] = target: Serine/threonine-protein kinase pim-2 (Homo sapiens) (UniProt Q9P1W9); assay: Inhibition of PIM2 (unknown origin) at 0.164 uM relative to control
# [22] = target: Serine/threonine-protein kinase BRSK1 (Homo sapiens) (UniProt Q8TDC3); assay: Inhibition of BRSK1 (unknown origin) at 0.164 uM relative to control
# [23] = target: Tyrosine-protein kinase Lyn (Homo sapiens) (UniProt P07948); assay: Inhibition of LYNB (unknown origin) at 0.164 uM relative to control
# Chain of Serine/threonine-protein kinase PAK 5 (Homo sapiens) (Q9P286 whole entry, looked up): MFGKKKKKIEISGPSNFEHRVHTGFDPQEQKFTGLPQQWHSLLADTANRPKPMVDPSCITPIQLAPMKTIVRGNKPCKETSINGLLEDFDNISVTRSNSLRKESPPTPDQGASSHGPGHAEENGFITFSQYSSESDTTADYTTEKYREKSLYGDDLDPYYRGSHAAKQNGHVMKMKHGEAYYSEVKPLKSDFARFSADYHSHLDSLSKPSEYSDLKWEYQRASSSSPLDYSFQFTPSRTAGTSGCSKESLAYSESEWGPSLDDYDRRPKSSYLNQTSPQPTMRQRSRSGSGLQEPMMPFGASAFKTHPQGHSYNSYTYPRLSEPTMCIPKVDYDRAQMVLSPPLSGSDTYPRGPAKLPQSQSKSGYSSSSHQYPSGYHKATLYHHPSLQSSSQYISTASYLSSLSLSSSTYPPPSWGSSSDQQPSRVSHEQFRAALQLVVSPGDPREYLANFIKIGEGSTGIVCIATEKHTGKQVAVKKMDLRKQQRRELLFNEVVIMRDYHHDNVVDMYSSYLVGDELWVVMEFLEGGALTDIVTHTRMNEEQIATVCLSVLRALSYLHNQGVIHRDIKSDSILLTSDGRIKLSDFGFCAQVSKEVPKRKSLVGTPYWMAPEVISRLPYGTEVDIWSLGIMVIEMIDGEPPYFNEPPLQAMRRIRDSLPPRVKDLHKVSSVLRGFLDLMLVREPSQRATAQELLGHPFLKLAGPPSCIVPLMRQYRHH
# Chain of Serine/threonine-protein kinase 24 (Homo sapiens) (Q9Y6E0 whole entry, looked up): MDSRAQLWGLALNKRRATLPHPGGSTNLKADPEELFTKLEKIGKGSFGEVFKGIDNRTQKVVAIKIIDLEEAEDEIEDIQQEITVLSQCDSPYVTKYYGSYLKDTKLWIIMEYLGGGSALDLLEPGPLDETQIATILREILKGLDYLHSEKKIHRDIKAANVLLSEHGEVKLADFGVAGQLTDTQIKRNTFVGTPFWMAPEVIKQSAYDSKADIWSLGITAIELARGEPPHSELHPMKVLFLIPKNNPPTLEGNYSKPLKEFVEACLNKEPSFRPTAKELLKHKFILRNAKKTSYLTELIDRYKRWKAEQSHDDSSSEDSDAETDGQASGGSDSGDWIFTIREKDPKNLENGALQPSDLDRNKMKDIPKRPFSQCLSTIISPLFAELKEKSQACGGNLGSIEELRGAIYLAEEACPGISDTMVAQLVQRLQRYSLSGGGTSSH
# Chain of Serine/threonine-protein kinase Chk1 (Homo sapiens) (O14757 whole entry): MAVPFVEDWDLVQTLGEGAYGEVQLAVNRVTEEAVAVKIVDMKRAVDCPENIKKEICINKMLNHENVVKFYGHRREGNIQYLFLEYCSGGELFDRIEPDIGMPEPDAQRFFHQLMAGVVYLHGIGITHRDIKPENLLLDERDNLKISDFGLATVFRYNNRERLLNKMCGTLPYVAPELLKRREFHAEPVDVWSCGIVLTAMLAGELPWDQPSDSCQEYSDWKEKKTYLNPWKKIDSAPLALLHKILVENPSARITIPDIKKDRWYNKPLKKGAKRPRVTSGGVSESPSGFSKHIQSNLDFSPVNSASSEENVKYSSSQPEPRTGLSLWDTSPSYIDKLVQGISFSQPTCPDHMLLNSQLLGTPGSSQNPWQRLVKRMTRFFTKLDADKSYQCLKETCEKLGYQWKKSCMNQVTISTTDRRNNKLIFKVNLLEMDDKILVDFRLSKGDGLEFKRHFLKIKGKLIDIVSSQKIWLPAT
# Chain of Proto-oncogene tyrosine-protein kinase receptor Ret (Homo sapiens), P07949 [Y791F] (P07949 whole entry Y791F): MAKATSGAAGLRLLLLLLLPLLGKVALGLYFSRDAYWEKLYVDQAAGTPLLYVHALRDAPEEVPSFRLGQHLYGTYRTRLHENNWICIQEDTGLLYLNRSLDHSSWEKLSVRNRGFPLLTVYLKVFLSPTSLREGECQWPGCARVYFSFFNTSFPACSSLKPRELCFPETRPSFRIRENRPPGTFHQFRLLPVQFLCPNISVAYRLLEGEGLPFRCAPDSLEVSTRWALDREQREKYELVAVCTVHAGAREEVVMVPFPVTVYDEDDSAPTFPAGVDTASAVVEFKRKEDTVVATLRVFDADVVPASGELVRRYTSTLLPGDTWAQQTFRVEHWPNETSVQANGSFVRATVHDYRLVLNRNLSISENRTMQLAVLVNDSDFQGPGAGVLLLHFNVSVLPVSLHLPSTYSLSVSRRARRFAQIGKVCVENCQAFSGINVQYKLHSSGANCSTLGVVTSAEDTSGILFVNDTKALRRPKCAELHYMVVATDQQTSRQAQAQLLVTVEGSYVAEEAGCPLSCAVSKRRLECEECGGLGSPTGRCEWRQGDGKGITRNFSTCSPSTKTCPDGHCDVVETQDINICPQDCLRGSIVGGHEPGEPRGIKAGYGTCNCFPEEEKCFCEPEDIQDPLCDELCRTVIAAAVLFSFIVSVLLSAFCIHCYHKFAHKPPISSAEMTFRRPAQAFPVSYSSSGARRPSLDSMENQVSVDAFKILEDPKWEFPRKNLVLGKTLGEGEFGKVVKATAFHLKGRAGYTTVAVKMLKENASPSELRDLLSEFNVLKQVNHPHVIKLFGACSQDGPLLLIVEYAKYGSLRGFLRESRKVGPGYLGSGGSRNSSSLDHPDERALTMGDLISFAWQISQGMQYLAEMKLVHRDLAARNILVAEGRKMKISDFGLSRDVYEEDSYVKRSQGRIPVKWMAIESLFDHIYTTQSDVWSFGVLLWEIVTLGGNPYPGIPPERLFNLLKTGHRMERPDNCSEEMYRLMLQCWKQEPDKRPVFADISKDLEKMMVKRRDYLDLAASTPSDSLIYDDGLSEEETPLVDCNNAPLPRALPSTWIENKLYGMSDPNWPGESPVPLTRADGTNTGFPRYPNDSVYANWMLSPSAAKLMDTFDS
# Chain of RAF proto-oncogene serine/threonine-protein kinase (Homo sapiens) (P04049 whole entry, canonical isoform): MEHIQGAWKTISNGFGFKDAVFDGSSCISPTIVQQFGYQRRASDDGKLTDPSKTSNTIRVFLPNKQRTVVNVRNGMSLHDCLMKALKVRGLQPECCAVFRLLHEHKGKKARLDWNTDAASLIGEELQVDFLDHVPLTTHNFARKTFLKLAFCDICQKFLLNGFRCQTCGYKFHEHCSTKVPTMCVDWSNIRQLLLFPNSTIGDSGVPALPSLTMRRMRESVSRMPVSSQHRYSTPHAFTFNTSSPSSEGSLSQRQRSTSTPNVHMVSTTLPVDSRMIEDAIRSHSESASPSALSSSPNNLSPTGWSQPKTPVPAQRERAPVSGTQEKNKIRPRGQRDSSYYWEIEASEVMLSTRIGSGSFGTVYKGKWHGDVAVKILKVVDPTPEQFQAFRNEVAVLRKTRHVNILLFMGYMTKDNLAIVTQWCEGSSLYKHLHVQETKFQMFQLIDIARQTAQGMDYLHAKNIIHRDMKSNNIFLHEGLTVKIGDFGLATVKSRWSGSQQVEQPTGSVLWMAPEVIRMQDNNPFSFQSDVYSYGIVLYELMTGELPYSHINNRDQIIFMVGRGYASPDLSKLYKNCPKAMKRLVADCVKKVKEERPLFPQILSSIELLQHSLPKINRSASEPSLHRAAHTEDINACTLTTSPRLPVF
# Chain of Serine/threonine-protein kinase pim-2 (Homo sapiens) (Q9P1W9 whole entry, looked up): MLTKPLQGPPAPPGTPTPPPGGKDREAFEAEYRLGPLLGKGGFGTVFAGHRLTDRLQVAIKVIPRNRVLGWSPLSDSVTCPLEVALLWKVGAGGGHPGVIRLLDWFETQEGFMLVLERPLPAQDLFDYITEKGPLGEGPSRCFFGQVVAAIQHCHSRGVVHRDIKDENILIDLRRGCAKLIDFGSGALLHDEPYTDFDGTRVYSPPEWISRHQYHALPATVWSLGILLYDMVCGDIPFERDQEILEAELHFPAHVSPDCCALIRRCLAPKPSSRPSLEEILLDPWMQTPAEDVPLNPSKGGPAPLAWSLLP
# Chain of Platelet-derived growth factor receptor alpha (Homo sapiens) (P16234 whole entry): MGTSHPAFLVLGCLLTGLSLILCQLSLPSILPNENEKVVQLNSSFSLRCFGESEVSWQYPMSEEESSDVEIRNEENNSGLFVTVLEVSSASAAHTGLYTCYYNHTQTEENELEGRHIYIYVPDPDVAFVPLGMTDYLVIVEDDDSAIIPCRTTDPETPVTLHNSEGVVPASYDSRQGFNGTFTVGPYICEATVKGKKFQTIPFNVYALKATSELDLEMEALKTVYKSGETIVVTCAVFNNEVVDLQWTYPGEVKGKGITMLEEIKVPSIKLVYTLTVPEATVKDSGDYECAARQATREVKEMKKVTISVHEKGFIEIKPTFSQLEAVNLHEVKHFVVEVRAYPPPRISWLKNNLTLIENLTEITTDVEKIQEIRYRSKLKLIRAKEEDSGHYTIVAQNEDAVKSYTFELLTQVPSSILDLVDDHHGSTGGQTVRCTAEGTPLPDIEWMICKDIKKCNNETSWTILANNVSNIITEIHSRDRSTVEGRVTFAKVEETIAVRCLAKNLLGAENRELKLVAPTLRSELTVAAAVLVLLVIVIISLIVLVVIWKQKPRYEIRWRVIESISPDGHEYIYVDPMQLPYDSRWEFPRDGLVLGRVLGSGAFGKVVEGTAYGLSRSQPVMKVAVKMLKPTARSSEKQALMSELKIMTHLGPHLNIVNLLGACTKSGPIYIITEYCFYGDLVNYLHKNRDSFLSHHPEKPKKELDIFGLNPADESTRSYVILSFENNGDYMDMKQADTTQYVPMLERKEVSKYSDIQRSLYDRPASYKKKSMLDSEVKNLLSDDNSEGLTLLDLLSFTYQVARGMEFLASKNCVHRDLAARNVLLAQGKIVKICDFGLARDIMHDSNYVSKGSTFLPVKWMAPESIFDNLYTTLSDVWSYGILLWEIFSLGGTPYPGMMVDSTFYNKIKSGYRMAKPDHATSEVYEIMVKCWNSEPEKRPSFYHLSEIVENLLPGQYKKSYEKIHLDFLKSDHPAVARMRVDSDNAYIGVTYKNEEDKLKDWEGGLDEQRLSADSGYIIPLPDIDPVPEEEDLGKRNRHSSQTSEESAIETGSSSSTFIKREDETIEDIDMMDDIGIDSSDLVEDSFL
compound,measurement,setting,value
Cc1n[nH]c(C)c1-c1ccc2c(NC(=O)c3ccc(N4CCN(C)CC4)cc3)n[nH]c2c1,inhibition,[1],-2%
Cc1[nH]nc(C2CC2)c1-c1ccc2c(-c3ccc(N4CCN(C)CC4)nc3)n[nH]c2c1,inhibition,[2],-1.7%
same,inhibition,[3],3.7%
same,inhibition,[4],6.3%
same,inhibition,[5],4.7%
same,inhibition,[6],2%
same,inhibition,[7],40%
same,inhibition,[8],0.7%
same,inhibition,[9],-2.7%
same,inhibition,[10],-8.7%
same,inhibition,[11],-0.7%
COC(=O)Nc1cc(-c2c(C3CC3)n[nH]c2C)cc2[nH]ncc12,inhibition,[12],-3%
same,inhibition,[13],1.3%
same,inhibition,[14],5.3%
same,inhibition,[15],1.3%
same,inhibition,[16],6%
same,inhibition,[17],7.3%
same,inhibition,[18],-0.7%
same,inhibition,[19],11.7%
same,inhibition,[20],5%
same,inhibition,[21],-6%
same,inhibition,[22],-1%
same,inhibition,[23],-0.3%
